Patent US8835470B2, “Mandelamide heterocyclic compounds” (Bristol-Myers Squibb Company, priority 2010, dated 2014)

Legend:
S1P1 [1] = target: T1, S1P1 (Homo sapiens (Human), UniProt P21453); assay: S1P1 Binding Assay; conditions: membranes from CHO cells expressing human S1P1; 33P-S1P ligand; rounded to two digits
Experimental: Membranes were prepared from CHO cells expressing human S1P1. Cells were dissociated in buffer containing 20 mM HEPES, pH 7.5, 50 mM NaCl, 2 mM EDTA and Protease Inhibitor cocktail (Roche), and disrupted on ice using the Polytron homogenizer. The homogenate was centrifuged at 20,000 rpm (48,000 G) and the supernatant was discarded. The membrane pellets were resuspended in buffer containing 50 mM HEPES, pH 7.5, 100 mM NaCl, 1 mM MgCl2, 2 mM EDTA and stored in aliquots at −80° C. after protein concentration determination. Membranes (2 μg/well) and 0.03 nM final concentration of ^33P-S1P ligand (1 mCi/ml, American Radiolabeled Chemicals) were added to the compound plates. Binding was performed for 45 minutes at room temperature, terminated by collecting the membranes onto GF/B filter plates, and radioactivity was measured by TOPCOUNT®. The competition data of the test compounds over a range of concentrations was plotted as percentage inhibition of radioligand specific binding. The IC50 is defined as the concentration of competing ligand needed to reduce specific binding by 50%.
The results in Table A were rounded to two digits.

S1P1 [2] = target: T1, S1P1; assay: Receptor [35S] GTPγS Binding Assay, S1P1; assay type: biochemical; conditions: for EC50: membranes from S1P1/CHO cells, [35S]GTP; for GTPγS S1P3/S1P1: ratio of GTPγS S1P3 EC50 to GTPγS S1P1 EC50, * and ** S1P3 value at detection limit
Experimental: (§1) Receptor [35S] GTPγS Binding Assays
(§2) Membranes prepared from S1P1/CHO cells or EDG3-Ga15-bla HEK293T cells were added to the compound plate (40 μl/well, final protein 3 μg/well) with MULTIDROP®. [^35S]GTP (1250 Ci/mmol, Perkin Elmer) was diluted in assay buffer: 20 mM HEPES, pH7.5, 10 mM MgCl2, 150 mM NaCl, 1 mM EGTA, 1 mM DTT, 10 μM GDP, 0.1% fatty acid free BSA, and 10 μg/ml Saponin to 0.4 nM. 40 μl of the [^35S] GTP solution was added to the compound plate with a final concentration of 0.2 nM. The reaction was kept at room temperature for 45 min. At the end of incubation, all the mixtures in the compound plate were transferred to a 384 well FB filter plates via GPCR robot system. The filter plate was washed with water 4 times by using the modified manifold Embla plate washer and dried at 60° C. for 45 min. 30 μl of MicroScint 20 scintillation fluid was added to each well for counting at Packard TOPCOUNT®.
A larger value for the GTPγS S1P3 EC50 value indicated less activity in the GTPγS S1P3 binding assay.

S1P3 = S1P3 (Homo sapiens (Human), UniProt Q99500); assay: Receptor [35S] GTPγS Binding Assay, S1P3; assay type: biochemical; conditions: membranes from EDG3-Ga15-bla HEK293T cells; * detection limit 62,500 nM, ** detection limit 32,500 nM
Experimental: as §1
as §2, with “Compounds were loaded in a 384 FALCON® v-bottom plate (0.5 μl/well in a 3-fold dilution). Membranes” for “Membranes”, “TOPCOUNT®. EC50 is defined as the agonist concentration that corresponds to 50% of the Ymax (maximal response) obtained for each individual compound tested.” for “TOPCOUNT®.”
A smaller value for GTPγS S1P1 EC50 value indicated greater activity for the compound in the GTPγS S1P1 binding assay. A larger value for the GTPγS S1P3 EC50 value indicated less activity in the GTPγS S1P3 binding assay.

circulating lymphocytes = assay: Blood Lymphocyte Reduction Assay (BLR) in Rodents; assay type: in vivo; conditions: Rattus norvegicus, Lewis rats, oral, dose 1 mg/kg, 4 hr, vs vehicle group
Experimental: Blood Lymphocyte Reduction Assay (BLR) in Rodents
Lewis rats were dosed orally with test article (as a solution or suspension in the vehicle) or vehicle alone (polyethylene glycol 300, “PEG300”). Blood was drawn at 4 hr by retro-orbital bleeding. Blood lymphocyte counts were determined on an ADVIA® 120 Hematology Analyzer (Siemens Healthcare Diagnostics). The results were measured as a reduction in the percentage of circulating lymphocytes as compared to the vehicle treated group at the 4 hr measurement. The results represent the average results of all animals within each treatment group (n=3-4).
The following examples were tested in the Blood Lymphocyte Reduction assay (BLR) described hereinabove and the results are shown in Table D for rats.

T1 sequence (P21453 whole entry): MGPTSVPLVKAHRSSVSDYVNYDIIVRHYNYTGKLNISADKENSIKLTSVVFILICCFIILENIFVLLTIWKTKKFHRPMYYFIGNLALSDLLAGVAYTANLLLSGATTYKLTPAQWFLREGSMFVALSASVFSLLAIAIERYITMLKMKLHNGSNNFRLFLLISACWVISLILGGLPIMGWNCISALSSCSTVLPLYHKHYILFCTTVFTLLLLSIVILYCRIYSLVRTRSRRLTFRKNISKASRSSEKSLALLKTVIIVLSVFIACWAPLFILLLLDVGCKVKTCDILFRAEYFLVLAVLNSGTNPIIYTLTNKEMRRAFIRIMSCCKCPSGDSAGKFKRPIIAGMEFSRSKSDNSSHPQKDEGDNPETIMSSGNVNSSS
Sequence of S1P3 (Q99500 whole entry): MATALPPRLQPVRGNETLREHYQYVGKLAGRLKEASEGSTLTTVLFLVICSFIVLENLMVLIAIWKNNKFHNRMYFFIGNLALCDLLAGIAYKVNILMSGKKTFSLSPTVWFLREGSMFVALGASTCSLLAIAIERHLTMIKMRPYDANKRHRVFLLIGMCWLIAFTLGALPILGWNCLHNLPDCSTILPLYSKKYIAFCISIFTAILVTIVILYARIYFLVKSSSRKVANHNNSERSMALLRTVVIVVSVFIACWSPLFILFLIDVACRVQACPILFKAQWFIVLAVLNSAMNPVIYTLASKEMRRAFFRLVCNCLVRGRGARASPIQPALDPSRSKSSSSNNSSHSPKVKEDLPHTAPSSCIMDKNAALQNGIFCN

IC50 (S1P1 [1]) | EC50 (S1P1 [2]) | GTPγS S1P3/S1P1 (S1P1 [2]) | EC50 (S1P3) | SMILES | inhibition in vivo at 1 mg/kg (circulating lymphocytes)
2.6 nM | 15.7 nM | 232 | 3640 nM | N#CC1(NC(=O)C(O)c2ccc(-c3noc(-c4onc(-c5ccccc5)c4C(F)(F)F)n3)cc2)CC1 (single isomer, unassigned) [Example 41, N-(1-Cyanocyclopropyl)-2-hydroxy-2-(4-(5-(3-phenyl-4-(trifluoromethyl)isoxazol-5-yl)-1,2,4-oxadiazol-3-yl)phenyl)acetamide] | 80%
0.85 nM | 2 nM | 5234 | 10500 nM | O=C(NCCO)C(O)c1ccc(-c2noc(-c3onc(-c4ccccc4)c3C(F)(F)F)n2)cc1 (single isomer, unassigned) [Example 71, 2-Hydroxy-N-(2-hydroxyethyl)-2-(4-(5-(3-phenyl-4-(trifluoromethyl)isoxazol-5-yl)-1,2,4-oxadiazol-3-yl)phenyl)acetamide] | 71%
